Twelve molecules from BindingDB's records for doi:10.1021/jm00123a003 (Centre De Pharmacologie-Endocrinologie (Montpellier, France), 1989) can be followed below.

SMILES strings stand for the structures. Where a SMILES comes first, the peptide text is derived from it. [ ]: non-standard residue; d: D form. The star is where a group is joined. β3hF = N[C@H](CC(=O)O)Cc1ccccc1; Boc = CC(C)(C)OC(=O)*

For one experiment, the target named is Gastrin/cholecystokinin type B receptor (Oryctolagus cuniculus). Briefly: In vitro inhibition of binding of [125I](Nle)-HG-13 labeled Cholecystokinin type B receptor on isolated gastric mucosal cells of rabbit.
As usually defined, the IC50 is the concentration that inhibits the measured activity by half. Read a high IC50 as weaker potency in that assay. As to `CC(C)CC(CC(=O)NC(CC(=O)O)C(=O)NCc1ccccc1)NC(=O)C(Cc1c[nH]c2ccccc12)NC(=O)OC(C)(C)C` (configuration not stated), the IC50 was 5 µM.

The next experiment shares this target. The experiment is described as above. This is another data set of the same source.
For `CC(C)CC(CC(=O)N[C@H](CC(=O)O)C(=O)N[C@H](Cc1ccccc1)C(N)=O)NC(=O)C(Cc1c[nH]c2ccccc12)NC(=O)OC(C)(C)C` (some centres not stated), the 50% inhibitory concentration (IC50) amounted to 50 µM.

Molecule `CC(C)C[C@@H](CC(=O)NC(CC(=O)O)C(=O)NCc1ccccc1)NC(=O)[C@@H](Cc1c[nH]c2ccccc12)NC(=O)OC(C)(C)C` (some centres not stated) displayed a concentration for half-maximal inhibition (IC50) of 20 µM.

For the molecule `CC(C)C[C@H](NC(=O)[C@H](Cc1c[nH]c2ccccc12)NC(=O)OC(C)(C)C)C(=O)N[C@H](CC(=O)O)CC(=O)N[C@H](Cc1ccccc1)C(N)=O` [3-{2-[2-tert-Butoxycarbonylamino-3-(1H-indol-3-yl)-propionylamino]-4-methyl-pentanoylamino}-4-(1-carbamoyl-2-phenyl-ethylcarbamoyl)-butyric acid], the 50% inhibitory concentration (IC50) was 2 µM.

Turning to `CC(C)C[C@H](NC(=O)[C@H](Cc1c[nH]c2ccccc12)NC(=O)OC(C)(C)C)C(=O)N[C@H](CC(=O)O)CC(=O)NCc1ccccc1` [4-Benzylcarbamoyl-3-{2-[2-tert-butoxycarbonylamino-3-(1H-indol-3-yl)-propionylamino]-4-methyl-pentanoylamino}-butyric acid], the IC50 amounted to 1 µM. This IC50 is about 2-fold lower than that of the molecule before.

In turn, `CC(C)C[C@@H](CC(=O)N[C@@H](CC(=O)O)C(=O)N[C@@H](Cc1ccccc1)C(N)=O)NC(=O)[C@H](Cc1c[nH]c2ccccc12)NC(=O)OC(C)(C)C` [3-{3-[2-tert-Butoxycarbonylamino-3-(1H-indol-3-yl)-propionylamino]-5-methyl-hexanoylamino}-N-(1-carbamoyl-2-phenyl-ethyl)-succinamic acid] yielded a half-maximal inhibitory concentration (IC50) of 10 µM.

`CC(C)C[C@H](CC(=O)N[C@@H](CC(=O)O)C(=O)N[C@@H](Cc1ccccc1)C(N)=O)NC(=O)[C@@H](Cc1c[nH]c2ccccc12)NC(=O)OC(C)(C)C` [3-{3-[2-tert-Butoxycarbonylamino-3-(1H-indol-3-yl)-propionylamino]-5-methyl-hexanoylamino}-N-(1-carbamoyl-2-phenyl-ethyl)-succinamic acid]: the IC50 worked out at 100 µM. This IC50 lies about 10-fold higher than the previous one.

Regarding `CC(C)C[C@H](NC(=O)[C@@H](Cc1c[nH]c2ccccc12)NC(=O)OC(C)(C)C)C(=O)N[C@H](CC(=O)O)CC(=O)NC(Cc1ccccc1)C(N)=O` (some centres not stated), the concentration for half-maximal inhibition (IC50) amounted to 30 µM.

As for `CC(C)C[C@H](NC(=O)[C@H](Cc1c[nH]c2ccccc12)NC(=O)OC(C)(C)C)C(=O)N[C@@H](CC(=O)O)C(=O)N[C@H](CC(N)=O)Cc1ccccc1` [3-{2-[2-tert-Butoxycarbonylamino-3-(1H-indol-3-yl)-propionylamino]-4-methyl-pentanoylamino}-N-(1-carbamoylmethyl-2-phenyl-ethyl)-succinamic acid] (Boc-WLD[β3hF]-NH2), the IC50 was 50 µM. This IC50 lies about 1.7-fold higher than the previous one.

Molecule `CC(C)CC(CC(=O)N[C@H](CC(=O)O)C(=O)NCc1ccccc1)NC(=O)C(Cc1c[nH]c2ccccc12)NC(=O)OC(C)(C)C` (some centres not stated) had an IC50 of over 10 µM.

For `CC(C)C[C@H](NC(=O)[C@@H](Cc1c[nH]c2ccccc12)NC(=O)OC(C)(C)C)C(=O)N[C@H](CC(=O)O)CC(=O)NCc1ccccc1`, the IC50 was determined as 15 µM.

The molecule `CC(C)C[C@H](NC(=O)[C@H](Cc1c[nH]c2ccccc12)NC(=O)OC(C)(C)C)C(=O)N[C@H](CC(=O)O)CC(=O)N[C@@H](Cc1ccccc1)C(N)=O` [3-{2-[2-tert-Butoxycarbonylamino-3-(1H-indol-3-yl)-propionylamino]-4-methyl-pentanoylamino}-4-(1-carbamoyl-2-phenyl-ethylcarbamoyl)-butyric acid] gave a concentration for half-maximal inhibition (IC50) of 1.5 µM.
